From patent publication US12435061B2 (priority 2020, dated 2025)
Read-outs that look alike come from different tables or passages of the source.

Tests used:
hTRPV3 [1] = molecular target: T1, hTRPV3 (Homo sapiens (Human), UniProt Q8NET8); experiment: hTRPV3 HAMA IC50 assay (Hamamatsu FDSS6000 calcium flux, TRex-293 cells)
Method: IC50s were calculated using CBIS from ChemInnovation (San Diego).

hTRPV3 [2] = molecular target: T1, hTRPV3; experiment: Whole-cell patch clamp, hTRPV3 Phase 1 / Phase 2 currents; type: cell-based
Outline: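 Currents are activated by 20 μM 2-APB or by perfusate at 28 °C or warmer, in Ringer's solution, and quantified at ±80 mV.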

[3] = Phase 1 current, inward, whole-cell patch clamp, read-out: hTRPV3 Patch P1 Inwd
[4] = Phase 1 current, read-out: hTRPV3 (nM) (Phase 1)
[5] = Phase 2 current, inward, whole-cell patch clamp, read-out: hTRPV3 Patch P2 Inwd
[6] = Phase 2 current, read-out: hTRPV3 (nM) (Phase 2)

T1 sequence (Q8NET8 whole entry): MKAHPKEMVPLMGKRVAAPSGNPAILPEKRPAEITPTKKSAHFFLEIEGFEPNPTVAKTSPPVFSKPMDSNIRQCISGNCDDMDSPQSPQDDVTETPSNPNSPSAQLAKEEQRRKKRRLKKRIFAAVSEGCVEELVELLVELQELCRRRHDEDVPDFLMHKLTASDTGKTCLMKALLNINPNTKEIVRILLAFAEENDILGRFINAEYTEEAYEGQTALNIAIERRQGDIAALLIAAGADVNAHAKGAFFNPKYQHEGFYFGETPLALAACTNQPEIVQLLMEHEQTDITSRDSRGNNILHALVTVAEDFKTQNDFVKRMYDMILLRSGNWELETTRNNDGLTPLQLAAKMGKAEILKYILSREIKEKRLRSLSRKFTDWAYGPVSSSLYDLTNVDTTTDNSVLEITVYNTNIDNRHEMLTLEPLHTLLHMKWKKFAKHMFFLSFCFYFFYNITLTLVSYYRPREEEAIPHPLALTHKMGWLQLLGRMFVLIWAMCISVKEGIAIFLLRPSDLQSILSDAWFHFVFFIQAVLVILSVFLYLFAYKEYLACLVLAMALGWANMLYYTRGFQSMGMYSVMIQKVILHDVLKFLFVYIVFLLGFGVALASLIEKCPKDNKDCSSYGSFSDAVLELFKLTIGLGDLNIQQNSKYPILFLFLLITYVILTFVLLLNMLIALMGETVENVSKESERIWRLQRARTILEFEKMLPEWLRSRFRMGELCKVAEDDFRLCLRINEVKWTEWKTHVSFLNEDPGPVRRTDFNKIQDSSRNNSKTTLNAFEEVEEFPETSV

Structure (SMILES) | hTRPV3 HAMA IC50 (nM) (5 min) (hTRPV3 [1]) | IC50 (hTRPV3 [2]; [3]) [nM] | IC50 (hTRPV3 [2]; [4]) [nM] | IC50 (hTRPV3 [2]; [5]) [nM] | IC50 (hTRPV3 [2]; [6]) [nM] | hTRPV3 HAMA IC50 (nM) (30 min) (hTRPV3 [1]) | IC50 (hTRPV3 [2]; hTRPV3 Patch P1 Inwd (nM), Phase 1 current, inward, whole-cell patch clamp) [nM] | IC50 (hTRPV3 [2]; hTRPV3 Patch P2 Inwd (nM), Phase 2 current, inward, whole-cell patch clamp) [nM] | hTRPV3 (nM) (Phase 1) (hTRPV3 [2]; Phase 1 current) | hTRPV3 (nM) (Phase 2) (hTRPV3 [2]; Phase 2 current)
FC(F)(F)c1ccc(O[C@H]2CCN(c3ccccc3-c3ccccc3)C2)nc1 [Compound 1-27, (S)-2-(1-(biphenyl-2-yl)pyrrolidin-3-yloxy)-5-(trifluoromethyl)pyridine] | no fit (5 min) | > 1000 | > 3200 |  |  |  |  |  |  | 
N#Cc1cc(-c2ccccc2)ccc1N1CC[C@H](Oc2ccc(C(F)(F)F)cn2)C1 [Compound 1-56, (S)-4-(3-(5-(trifluoromethyl)pyridin-2-yloxy)pyrrolidin-1-yl)biphenyl-3-carbonitrile] | R2 fail (5 min) |  |  | 100 to 1000 | ~504 |  |  |  |  | 
OCc1ccc(-c2ccccc2Cl)cc1N1CC[C@H](Oc2ncccc2Cl)C1 [Compound 1-234, (S)-(2′-chloro-3-(3-(3-chloropyridin-2-yloxy)pyrrolidin-1-yl)biphenyl-4-yl)methanol] | no fit (5 min) no fit (30 min) | 100 to 1000 | 737 |  |  | no fit (5 min) no fit (30 min) |  |  |  | 
Cc1ccccc1Oc1ccc(CO)c(N2CC[C@H](Oc3ccc(C(F)(F)F)cn3)C2)c1 [Compound 1-230, (S)-(4-(o-tolyloxy)-2-(3-(5-(trifluoromethyl)pyridin-2-yloxy)pyrrolidin-1-yl)phenyl)methanol] | no fit (5 min) no fit (30 min) | 100 to 1000 | 198 |  |  | no fit (5 min) no fit (30 min) |  |  |  | 
OCc1ccc(-c2ccccc2Cl)cc1N1CC[C@H](Oc2ccc(C(F)(F)F)cn2)C1 [Compound 1-225, (S)-(2′-chloro-3-(3-(5-(trifluoromethyl)pyridin-2-yloxy)pyrrolidin-1-yl)biphenyl-4-yl)methanol] | no fit (5 min) no fit (30 min) | 100 to 1000 | 215 |  |  | no fit (5 min) no fit (30 min) |  |  |  | 
Cc1ccccc1-c1ccc(CO)c(N2CC[C@H](Oc3ncccc3Cl)C2)c1 [Compound 1-240, (S)-(3-(3-(3-chloropyridin-2-yloxy)pyrrolidin-1-yl)-2′-methylbiphenyl-4-yl)methanol] | no fit (5 min) no fit (30 min) | 100 to 1000 | 934 |  |  | no fit (5 min) no fit (30 min) |  |  |  | 
Nc1cc(-c2ccccc2)ccc1N1CC[C@H](Oc2ccc3cc(Cl)ccc3n2)C1 [Compound 1-71, (S)-4-(3-(6-chloroquinolin-2-yloxy)pyrrolidin-1-yl)biphenyl-3-amine] | no fit (5 min) |  | > 3200 |  | > 3200 |  | > 1000 | > 1000 |  | 
CCOC(=O)COc1cc(-c2ccccc2)ccc1N1CC[C@H](Oc2ccc(C(F)(F)F)cn2)C1 [Compound 1-134, (S)-ethyl 2-(4-(3-(5-(trifluoromethyl)pyridin-2-yloxy)pyrrolidin-1-yl)biphenyl-3-yloxy)acetate] | no fit (5 min) | > 1000 | ~4820 | > 1000 | > 3200 |  |  |  |  | 
O=[N+]([O-])c1cc(-c2ccccc2)ccc1N1CC[C@H](Oc2ccc3cc(Cl)ccc3n2)C1 [Compound 1-70, (S)-6-chloro-2-(1-(3-nitrobiphenyl-4-yl)pyrrolidin-3-yloxy)quinoline] | no fit (5 min) | > 1000 | > 3200 | > 1000 | > 3200 |  |  |  |  | 
OCc1ncc(-c2ccccc2)cc1N1CC[C@H](Oc2ccc(C(F)(F)F)cn2)C1 [Compound 1-188, (S)-(5-phenyl-3-(3-(5-(trifluoromethyl)pyridin-2-yloxy)pyrrolidin-1-yl)pyridin-2-yl)methanol] | no fit (5 min) no fit (30 min) | > 1000 | > 3200 |  |  | no fit (5 min) no fit (30 min) |  |  |  | 
OCc1cc(-c2ccccc2C(F)(F)F)ccc1N1CC[C@H](Oc2ccc(C(F)(F)F)cn2)C1 [Compound 1-152, (S)-(2′-(trifluoromethyl)-4-(3-(5-(trifluoromethyl)pyridin-2-yloxy)pyrrolidin-1-yl)biphenyl-3-yl)methanol] | no fit (5 min) | 10 to 100 | 20.4 |  |  |  |  |  |  | 
CCc1ccccc1-c1ccc(CO)c(N2CC[C@H](Oc3ccc(C(F)(F)F)cn3)C2)c1 [Compound 1-227, (S)-(2′-ethyl-3-(3-(5-(trifluoromethyl)pyridin-2-yloxy)pyrrolidin-1-yl)biphenyl-4-yl)methanol] | no fit (5 min) no fit (30 min) | 100 to 1000 | 200 |  |  | no fit (5 min) no fit (30 min) |  |  |  | 
O=[N+]([O-])c1ccccc1N1CC[C@H](Oc2ccc3cc(Cl)ccc3n2)C1 [Compound 1-68, (S)-6-chloro-2-(1-(2-nitrophenyl)pyrrolidin-3-yloxy)quinoline] | no fit (5 min) | > 1000 | > 3200 | > 1000 | > 3200 |  |  |  |  | 
COc1ccccc1-c1ccc(N2CC[C@H](Oc3ncccc3C)C2)c(CO)n1 [Compound 1-186, (S)-(6-(2-methoxyphenyl)-3-(3-(3-methylpyridin-2-yloxy)pyrrolidin-1-yl)pyridin-2-yl)methanol] | no fit (5 min) no fit (30 min) | > 1000 | 1010 | 100 to 1000 | 980 | no fit (5 min) no fit (30 min) |  |  |  | 
NC(=O)c1c(-c2ccccc2)cccc1N1CC[C@H](Oc2ccc(C(F)(F)F)cn2)C1 [Compound 1-72, (S)-3-(3-(5-(trifluoromethyl)pyridin-2-yloxy)pyrrolidin-1-yl)biphenyl-2-carboxamide] | no fit (5 min) |  |  | > 1000 | > 3200 |  |  |  | Agonist | 
Nc1ccccc1N1CC[C@H](Oc2ccc3cc(Cl)ccc3n2)C1 [Compound 1-69, (S)-2-(3-(6-chloroquinolin-2-yloxy)pyrrolidin-1-yl)aniline] | no fit (5 in) |  |  |  |  |  |  |  |  | Agonist (Phase 2)
FC(F)(F)c1ccc(O[C@@H]2CCN(c3ccccc3-c3ccccc3)C2)nc1 [Compound 1-28, (R)-2-(1-(biphenyl-2-yl)pyrrolidin-3-yloxy)-5-(trifluoromethyl)pyridine] | no fit (5 min) | > 1000 | > 3200 |  |  |  |  |  |  | 
OCc1ccc(Oc2ccccc2Cl)cc1N1CC[C@H](Oc2ccc(C(F)(F)F)cn2)C1 [Compound 1-224, (S)-(4-(2-chlorophenoxy)-2-(3-(5-(trifluoromethyl)pyridin-2-yloxy)pyrrolidin-1-yl)phenyl)methanol] | no fit (5 min) no fit (30 min) | 100 to 1000 | 161 |  |  | no fit (5 min) no fit (30 min) |  |  |  | 
CCc1ccccc1-c1ccc(N2CC[C@H](Oc3ncccc3C)C2)c(CO)n1 [Compound 1-187, (S)-(6-(2-ethylphenyl)-3-(3-(3-methylpyridin-2-yloxy)pyrrolidin-1-yl)pyridin-2-yl)methanol] | no fit (5 min) no fit (30 min) | 100 to 1000 | 720 | > 1000 | ~1000 | no fit (5 min) no fit (30 min) |  |  |  | 
